Results as given in US11583532B2, “Triazolopyrimidine derivatives for use as ghrelin o-acyl transferase (GOAT) inhibitors” (Boehringer Ingelheim International GmbH, priority 2018, dated 2023).
“And” between values parts separate entries of the source, which are not always exact repeats. Identical values can stand only once.

Target: human GOAT (ghrelin O-acyl transferase) (Homo sapiens (Human), UniProt Q96T53)
Assay: Determination of hGOAT activity in HEK293 cells after incubation with test compound (acyl-ghrelin ELISA)
Type: cell-based
Conditions: HEK293 cells stably transfected with preproghrelin and human GOAT cDNA; octanoate-BSA 100 μM; 5 hours incubation; acyl-ghrelin in medium by ELISA; 8 compound concentrations
Protocol: Determination of hGOAT Activity in HEK293 Cells after incubation with test compound
HEK293 cells stably transfected with two expression vectors, one coding for preproghrelin cDNA and a second for the expression of human GOATcDNA are used as a cellular model. After feeding the cells with octanoic acid for 5 hours, acyl-ghrelin is measured in cell culture medium by an ELISA procedure.
Cellline: Hek293 hGOAT/PPGhrl Clone #1B8Sodium octanoate, Sigma, Cat.-No. C5038
BSA: Sigma, Cat.-No. A8806
BD Poly-D-Lysin 384-well Plates, black-clear polystyrene BD Bioscience Cat.-No. […] ELISA human acylated Ghrelin Kit purchased from Bertin Pharman (detailed composition of buffers e.g. wash-puffer, ELISA buffer not known)
All further reagents used were of highest analytical grade available.
Cells are plated with a density of 5000 cells/well in 384-well poly-D-lysin plates and incubated for 1 day at 37° C., 5% CO2 in DMEM medium, 10% FCS, 1×NEAA, Puromycin (0.5 μg/ml) and G418 (1 mg/ml). Then the medium is changed to a identical medium without FCS and containing Octanoate-BSA (final concentration 100 μM each) and compound in DMSO (final DMSO concentration 0.3%). After incubation for 5 hours acylghrelin in the medium is measured by ELISA.
The medium sample is diluted 1:25 in Elisa buffer, a 25 μl aliquot is transferred to a 384-well ELISA plate previously washed 4 times with 100 μL wash buffer, and 25 μl tracer-solution is added. After incubation overnight (˜20 h) at 4° C. temperature the plate is washed 4 times with 100 μl wash-buffer per well. Finally 50 μl Ellman's reagent is added to each well and the plate is incubated in the dark for 20 minutes. The absorbance is measured at 405 nm in an Envision multilabel reader and the amount of acylated ghrelin is calculated according to a acylated ghrelin standard curve provided in the same plate.
The analysis of the data is performed by calculation of the percentage of acyl-ghrelin produced in the presence of test compound compared to the amount of acyl-ghrelin produced in the vehicle control samples. An inhibitor of the GOAT enzyme will give values between 100% CTL (no inhibition) and 0% CTL (complete inhibition).
IC50 values are calculated with Assay Explorer or other suited software based on curve fitting of results of 8 different compound concentrations.

Chain of human GOAT (ghrelin O-acyl transferase) (Q96T53 whole entry): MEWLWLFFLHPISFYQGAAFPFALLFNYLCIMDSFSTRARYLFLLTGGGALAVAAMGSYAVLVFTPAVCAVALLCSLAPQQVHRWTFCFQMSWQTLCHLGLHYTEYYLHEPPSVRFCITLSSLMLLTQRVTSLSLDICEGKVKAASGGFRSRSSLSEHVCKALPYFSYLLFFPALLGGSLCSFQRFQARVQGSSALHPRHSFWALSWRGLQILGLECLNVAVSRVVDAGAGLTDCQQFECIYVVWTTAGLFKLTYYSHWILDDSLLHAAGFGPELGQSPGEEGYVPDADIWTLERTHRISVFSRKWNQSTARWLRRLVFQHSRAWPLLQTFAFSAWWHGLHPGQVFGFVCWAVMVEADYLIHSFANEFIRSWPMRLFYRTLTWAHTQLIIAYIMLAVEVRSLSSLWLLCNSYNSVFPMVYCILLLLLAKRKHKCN

Structure (SMILES)	IC50
Cc1nc2ncnn2c(N)c1Cc1ccc(Br)c(OCC(C)(F)F)n1 [Example 1.1, 6-{[5-Bromo-6-(2,2-difluoropropoxy)pyridin-2-yl]methyl}-5-methyl-[1,2,4]triazolo[1,5-a]pyrimidin-7-amine]	0.31 nM
Cc1nc2ncnn2c(N)c1Cc1ccc(OC(F)F)c(Br)c1 [Example 1.2]	2 nM
Cc1nc2ncnn2c(N)c1Cc1ccc(C(F)(F)F)c(-c2ccco2)n1 [Example 2.1, 6-{[6-(Furan-2-yl)-5-(trifluoromethyl)pyridin-2-yl]methyl}-5-methyl-[1,2,4]triazolo[1,5-a]pyrimidin-7-amine]	0.4 nM
Cc1nc2ncnn2c(N)c1Cc1ccc(C(F)(F)F)c(N2CCOCC2)n1 [Example 3.1, 5-Methyl-6-{[6-(morpholin-4-yl)-5-(trifluoromethyl)pyridin-2-yl]methyl}-[1,2,4]triazolo[1,5-a]pyrimidin-7-amine]	0.65 nM
Cc1nc2ncnn2c(N)c1Cc1ccc(C(F)(F)F)c(N2CC(F)(F)C2)n1 [Example 3.3]	0.32 nM and 0.76 nM
Cc1nc2ncnn2c(N)c1Cc1ccc(C(F)(F)F)c(N)n1 [Example 3.4]	6.5 nM
Cc1nc2ncnn2c(N)c1Cc1ccc(OC(F)F)c(Br)n1 [Example 4.1, 6-{[6-Bromo-5-(difluoromethoxy)pyridin-2-yl]methyl}-5-methyl-[1,2,4]triazolo[1,5-a]pyrimidin-7-amine]	0.3 nM
COc1nc(C(F)(F)F)ccc1Cc1c(C)nc2ncnn2c1N [Example 4.2]	1.9 nM
Cc1nc2ncnn2c(N)c1Cc1ccc(C(F)(F)F)c(Br)c1 [Example 4.3]	1.1 nM
Cc1nc2ncnn2c(N)c1Cc1ccc(OC(F)(F)F)c(Br)c1 [Example 4.4, 6-{[3-bromo-4-(trifluoromethoxy)phenyl]methyl}-5-methyl-[1,2,4]triazolo[1,5-a]pyrimidin-7-amine]	1.1 nM
CCOc1cc(C(F)(F)F)ccc1Cc1c(C)nc2ncnn2c1N [Example 4.5]	2.4 nM
Cc1nc2ncnn2c(N)c1Cc1ccc(C(F)(F)F)nc1OC1CCC1 [Example 4.6]	3 nM
CCOc1nc(C(F)(F)F)ccc1Cc1c(C)nc2ncnn2c1N [Example 4.7]	2.9 nM
Cc1nc2ncnn2c(N)c1Cc1cccc(OC(F)F)n1 [Example 4.8]	8.8 nM
Cc1nc2ncnn2c(N)c1Cc1ccc(C(F)F)cc1 [Example 4.9]	9.8 nM
Cc1nc2ncnn2c(N)c1Cc1ccc(Br)c(OC(F)F)n1 [Example 5.1, 6-{[5-Bromo-6-(difluoromethoxy)pyridin-2-yl]methyl}-5-methyl-[1,2,4]triazolo[1,5-a]pyrimidin-7-amine]	0.13 nM
Cc1nc2ncnn2c(N)c1Cc1ccc(OC(F)(F)F)cc1 [Example 6.1, 5-methyl-6-{[4-(trifluoromethoxy)phenyl]methyl}-[1,2,4]triazolo[1,5-a]pyrimidin-7-amine]	3.9 nM
COc1cc(C(F)(F)F)ccc1Cc1c(C)nc2ncnn2c1N [Example 6.2]	0.69 nM

Structure (SMILES)	IC50
Cc1nc2ncnn2c(N)c1Cc1ccc(C(F)(F)F)cc1 [Example 6.3]	3.4 nM
Cc1nc2ncnn2c(N)c1Cc1ccc(OC(F)F)cc1 [Example 6.4]	1.9 nM
Cc1nc2ncnn2c(N)c1Cc1ccc(SC(F)(F)F)cc1 [Example 6.5, 5-methyl-6-({4-[(trifluoromethyl)sulfanyl]phenyl}methyl)-[1,2,4]triazolo[1,5-a]pyrimidin-7-amine]	1.7 nM
Cc1nc2ncnn2c(N)c1Cc1ccc(C#N)c(NCC(F)F)n1 [Example 7.1, 6-({7-amino-5-methyl-[1,2,4]triazolo[1,5-a]pyrimidin-6-yl}methyl)-2-[(2,2-difluoroethyl)amino]pyridine-3-carbonitrile]	0.37 nM
COC(=O)c1cc(Cc2c(C)nc3ncnn3c2N)ccc1C(F)(F)F [Example 7.2]	0.57 nM
Cc1nc2ncnn2c(N)c1Cc1ccc(C#N)c(NC2CC(F)(F)C2)n1 [Example 7.3]	2.3 nM
Cc1nc2ncnn2c(N)c1Cc1ccc(C#N)c(OCC(C)(F)F)n1 [Example 7.4]	1.3 nM
COc1cc(Cc2c(C)nc3ncnn3c2N)ccc1C(F)(F)F [Example 7.5]	0.92 nM
Cc1nc2ncnn2c(N)c1Cc1ccc(C#N)c(NCC(F)(F)F)n1 [Example 7.6]	0.69 nM
Cc1nc2ncnn2c(N)c1Cc1ccc(C#N)c(NCCC(F)F)n1 [Example 7.7]	0.93 nM
Cc1nc2ncnn2c(N)c1Cc1ccc(C#N)c(NCCF)n1 [Example 7.8]	1.1 nM
Cc1nc2ncnn2c(N)c1Cc1ccc(C#N)c(NCCCF)n1 [Example 7.9]	1.3 nM
Cc1nc2ncnn2c(N)c1Cc1ccc(C#N)c(NCC2CC2(F)F)n1 (stereo not drawn) [Example 7.10]	6.2 nM
Cc1nc2ncnn2c(N)c1Cc1ccc(Br)c(OCCCF)n1 [Example 8.1, 6-{[5-Bromo-6-(3-fluoropropoxy)pyridin-2-yl]methyl}-5-methyl-[1,2,4]triazolo[1,5-a]pyrimidin-7-amine]	0.27 nM
Cc1nc2ncnn2c(N)c1Cc1ccc(Br)c(NCC(F)(F)F)n1 [Example 8.2]	0.23 nM
Cc1nc2ncnn2c(N)c1Cc1ccc(Br)c(OCCF)n1 [Example 8.3]	0.3 nM
Cc1nc2ncnn2c(N)c1Cc1ccc(Br)c(OCC(F)F)n1 [Example 8.4]	0.3 nM

Next, values leading:

IC50	Structure (SMILES)
2.4 nM	Cc1nc2ncnn2c(N)c1Cc1ccc(C#N)c(OCC(F)F)n1 [Example 9.1, 6-({7-Amino-5-methyl-[1,2,4]triazolo[1,5-a]pyrimidin-6-yl}methyl)-2-(2,2-difluoroethoxy)pyridine-3-carbonitrile]
8.3 nM	Cc1nc2ncnn2c(N)c1Cc1ccc(C#N)c(OCC2(C(F)(F)F)CC2)n1 [Example 9.2]
0.56 nM	Cc1nc2ncnn2c(N)c1Cc1ccc(C#N)c(OCCCF)n1 [Example 9.3]
3.7 nM	Cc1nc2ncnn2c(N)c1Cc1ccc(C#N)c(OCCF)n1 [Example 9.4]
3.9 nM	Cc1nc2ncnn2c(N)c1Cc1ccc(C#N)c(OCC(F)(F)F)n1 [Example 9.5]
0.68 nM	Cc1nc2ncnn2c(N)c1Cc1ccc(Br)c(-n2cc(F)cn2)n1 [Example 10.1, 6-{[5-Bromo-6-(4-fluoro-1H-pyrazol-1-yl)pyridin-2-yl]methyl}-5-methyl-[1,2,4]triazolo[1,5-a]pyrimidin-7-amine]
2.8 nM	Cc1nc2ncnn2c(N)c1Cc1ccc(Br)c(-n2ccc(C(F)(F)F)n2)n1 [Example 10.2]
8.6 nM	Cc1nc2ncnn2c(N)c1Cc1ccc(Br)c(-n2cc(C(F)(F)F)cn2)n1 [Example 10.3]
0.95 nM	Cc1nc2ncnn2c(N)c1Cc1ccc(OC(F)(F)F)c(N=S(C)(C)=O)c1 [Example 11.1, {[5-({7-Amino-5-methyl-[1,2,4]triazolo[1,5-a]pyrimidin-6-yl}methyl)-2-(trifluoromethoxy)phenyl]imino}dimethyl-λ6-sulfanone]
0.68 nM	Cc1nc2ncnn2c(N)c1Cc1ccc(OC(F)(F)F)c(N=S2(=O)CCC2)c1 [Example 11.2]
4.4 nM	Cc1nc2ncnn2c(N)c1Cc1ccc(OC(F)F)c(C#N)n1 [Example 12.1, 6-({7-Amino-5-methyl-[1,2,4]triazolo[1,5-a]pyrimidin-6-yl}methyl)-3-(difluoromethoxy)pyridine-2-carbonitrile]
1.7 nM	Cc1nc2ncnn2c(N)c1Cc1cccc(-c2cn(C)nc2C(F)(F)F)n1 [Example 13.1, 5-Methyl-6-({6-[1-methyl-3-(trifluoromethyl)-1H-pyrazol-4-yl]pyridin-2-yl}methyl)-[1,2,4]triazolo[1,5-a]pyrimidin-7-amine]
2.1 nM	Cc1nc2ncnn2c(N)c1Cc1cccc(-c2c[nH]nc2C(F)(F)F)n1 [Example 13.2]
0.31 nM	Cc1nc2ncnn2c(N)c1Cc1ccc(Br)c(C2(C#N)CC(F)(F)C2)n1 [Example 14.1, 1-[6-({7-Amino-5-methyl-[1,2,4]triazolo[1,5-a]pyrimidin-6-yl}methyl)-3-bromopyridin-2-yl]-3,3-difluorocyclobutane-1-carbonitrile]
0.83 nM	COC(=O)c1cc(Cc2c(C)nc3ncnn3c2N)ccc1OC(F)(F)F [Example 15.1, Methyl 5-({7-amino-5-methyl-[1,2,4]triazolo[1,5-a]pyrimidin-6-yl}methyl)-2-(trifluoromethoxy)benzoate]
3.5 nM and 5.4 nM	Cc1nc2ncnn2c(N)c1Cc1ccc(OC(F)(F)F)c(C(=O)N(C)C)c1 [Example 15.2, 5-({7-Amino-5-methyl-[1,2,4]triazolo[1,5-a]pyrimidin-6-yl}methyl)-N,N-dimethyl-2-(trifluoromethoxy)benzamide]
